What was measured:
human primary monocytes = test: IFN-α production in human primary monocytes transfected with RNA (ELISA); assay type: cell-based; details: 200 ng RNA transfected, 24 hours, ELISA
PDC = test: IFN-α production in human PDC (ELISA); assay type: cell-based; details: 24 hours
Experimental: Human PBMC were prepared from whole blood donated by young healthy donors by Ficoll-Hypaque density gradient centrifugation (Biochrom, Berlin, Germany). PDC were isolated by MACS using the blood dendritic cell Ag (BCDA)-4 dendritic cell isolation kit from Miltenyi Biotec (Bergisch-Gladbach, Germany). Briefly, PDC were labelled with anti-BDCA-4 Ab coupled to colloidal paramagnetic microbeads and passed through a magnetic separation column twice (LS column, then MS column; Miltenyi Biotec). The purity of isolated PDC (lineage-negative, MHC-II-positive and CD123-positive cells) was above 95%. Before isolation of monocytes, PDC were depleted by MACS (LD column; Miltenyi Biotec) and then monocytes were isolated using the monocyte isolation kit II (Miltenyi Biotec). […] PDC cultures were additionally supplemented with 10 ng/ml IL-3 (R&D Systems). […] Vero (African green monkey kidney) and HEK 293T (human embryonic kidney) cells were maintained in Dulbecco's modified Eagle's medium supplemented with antibiotics and 5% or 10% foetal calf serum, respectively. BSR cells were propagated in Glasgow minimal essential medium supplemented with 10% newborn calf serum, phosphate broth, amino acids and antibiotics.
Human IFN-α was assessed in cell culture supernatants using the IFN-α module set (Bender MedSystems, Graz, Austria). The murine IP-10 ELISA was from Biosource (Solingen, Germany), the murine IFN-[…] ELISA was from PBL Biomedical Laboratories (Piscataway, USA). All ELISA procedures were performed, according to manufacturers' recommendations.

PBMC = test: IFN-α in PBMC transfected with chemically synthesized 5′ triphosphate RNA (ELISA); assay type: cell-based, human; details: oligonucleotide alone, 0.2 μg, 24 hours
Experimental: PBMC were transfected with chemically synthesized single-strand oligonucleotides alone or together with their complementary antisense strand (AS) by using Lipofectamine and incubated in the presence or absence of chloroquine (Chl). CpG2331 was used as a positive and chloroquine-sensitive control for IFN-α induction in PBMC.
The isRNA9.2 (Hornung V et al. (2005) Nat Med 11(3):263-70) generated by in vitro transcription was used a positive control (IVT2-3PRNA). CpG2331 is a TLR9 ligand. PBMC (400,000 cells per well) were transfected with oligonucleotides by using Lipofectamin (0.5 μl, 0.2 μg oligonucleotide). Hybridization of complementary strands was performed by heating 4 μg total RNA in 20 μl of buffer (final 50 mM Tris/HCl pH7.5 100 mM NaCl) up to 70° C. followed by cooling down to 40° C. Chloroquine was used to block TLR-mediated nucleic acid recognition (2.5 μg/ml).

[1] = Blood cell counts (leucocytes, platelets) after injection; assay type: in vivo, C57BL/6 mice; details: 50 μg, 48 hours
Experimental: (b & c) C57BL/6 mice were injected with 50 μg 3p-2.2 complexed with jetPEI™. Blood was collected after 48 h and processed as EDTA […] for measurement of leucocytes (WBC) and platelets. Blood cell counts were performed at the Central Laboratory of the Department of Internal Medicine, University of Munich at the indicated time point (P**<0.01 between the platelet count of 3p-2.2 and CpG). Data are shown as means±SEM of 2 independent experiments.

[2] = system: B16 melanoma lung metastases; test: B16 melanoma lung metastases model; assay type: in vivo; details: C57BL/6 mice, 50 μg complexed with jetPEI intravenously on day 3, 6 and 9, day 14, compared with PolyA
Experimental: (a) Therapeutic regimen: Mice were challenged with 4×10^5 B16 melanoma cells intravenously to experimentally induce lung metastases on day 0. Mice were treated intravenously with the indicated nucleic acid complexed to jetPEI™ on day 3, 6 and 9 as indicated. 14 days after challenge, the number of macroscopically visible melanoma metastases on the surface of the lungs was counted with the help of a dissecting microscope or the lung weight was calculated.
(b) Groups of five C57BL/6 mice were challenged with 4×10^5 B16 and treated as described. Mice were treated intravenously on day 3, 6 and 9 with 50 μg of OH-2.2, 50 μg 3p-2.2, 50 μg 3p-GC (a nonspecific double-stranded 3p-RNA) or 50 μg CpG oligonucleotide ligand, each complexed with jetPEI™. Control groups received 100 μl of Glucose 5% or 50 μg of PolyA complexed with jetPEI™. Tumor growth was assessed after 14 days by measuring the weight of the lungs. Shown are lung weights of five individual mice. The mean lung weight is indicated by a column. […]
For the induction of lung metastases we injected 4×10^5 B16 melanoma cells into the tail vein of the indicated mice. […] 14 days after challenge the number of macroscopically visible melanoma metastases on the surface of the lungs was counted with the help of a dissecting microscope or, in case of massive tumor load, lung weight was determined. […]

| thrombocytopenia [1] | Substance | IFN-α production in monocytes (human primary monocytes) | IFN-α production in PDC (PDC) | IFN-α induction in PBMC (PBMC) | lung metastases [2] |
| --- | --- | --- | --- | --- | --- |
| – | 5′-pppAGCUUAACCUGUCCUUCAA-3′ [9.2s (IVT)] | strongly induced IFN-α production | produced IFN-α | induced IFN-α | – |
| more apparent | 5′-TCCATGACGTTCCTGACGTT-3′ [CpG 1826] | – | – | – | significant reduction of lung metastases, but to a lesser extent than 3p-2.2 |
